The values that follow come from article PMC9376956, “Optimization of Covalent MKK7 Inhibitors via Crude Nanomole-Scale Libraries” (Journal of Medicinal Chemistry, 2022).

Each structure is given as a SMILES string. Read-outs that look alike come from different tables or passages of the source. A value given as a limit tells only on which side of the number the result lay.

Data set [1] concerns the target T1, MKK7 (Homo sapiens, UniProt O14733).
T1 construct: purchased Nanosyn, Santa Clara, CA (assay service)
T1 sequence (O14733 1-419): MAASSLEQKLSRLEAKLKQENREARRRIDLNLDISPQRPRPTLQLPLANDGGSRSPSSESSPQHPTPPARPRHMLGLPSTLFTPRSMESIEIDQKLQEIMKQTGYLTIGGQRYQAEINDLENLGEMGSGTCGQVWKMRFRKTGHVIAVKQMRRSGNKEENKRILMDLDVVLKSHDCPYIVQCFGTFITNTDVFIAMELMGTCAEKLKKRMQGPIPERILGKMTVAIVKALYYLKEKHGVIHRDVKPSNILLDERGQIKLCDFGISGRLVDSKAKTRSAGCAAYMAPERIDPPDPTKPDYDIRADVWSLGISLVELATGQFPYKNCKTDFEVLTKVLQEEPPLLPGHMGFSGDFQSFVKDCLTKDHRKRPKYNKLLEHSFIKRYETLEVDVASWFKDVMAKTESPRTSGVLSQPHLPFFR
Briefly: In vitro kinase activity assay (Nanosyn), MKK7 coupled with inactive JNK1. The following applies: MKK7 1 nM, 2 h preincubation, 2 μM ATP. It is filed as biochemical.

Data set [2] deals with phosphorylated c-Jun (p-c-Jun) in U2OS cells. Briefly: Dose-response western blot of c-Jun phosphorylation in sorbitol-treated U2OS cells. It is filed as cell-based. The following applies: sorbitol 0.2 M, read-out: cellular EC50, c-Jun phosphorylation inhibition. The procedure: U2OS cells were incubated a day before the experiment in a six-well plate. On the day of the experiment, the cells underwent media change and were incubated with the compound containing 0.1% DMSO, or DMSO only, for 80 min. Sorbitol was then added to the concentration of 0.2 M for 40 min, except for an “untreated” well. After 40 min, the cells were harvested using Trypsin B and were washed with ice-cold PBS. The cells were lysed using a mixture of 50 μL of RIPA buffer (Sigma; R0278) and a protease inhibitor (Sigma; P8340) for 20 min, in which every 5 min, the cells undergo a 5 s vortex. After 20 min, cell lysates underwent a 20 min centrifuge at 4 °C at 21,000 rpm. The lysates were then separated from the cell membrane remains. Protein concentration was determined by the BCA analysis, and 35 μg of protein was taken from each sample, supplemented with 4× loading buffer that has 0.02 mM DTT, and heated for 10 min at 70 °C. […] The membrane was washed again with TBS-T three times for 10 min and reincubated with the blocking buffer for 30 min. […] The protocol repeats itself, using an anti-mouse HRP secondary antibody instead.
Quantification was done using ImageJ software.

A further data set has as its target T2, JNK (Homo sapiens, UniProt P45983).
T2 construct: purchased Nanosyn, Santa Clara, CA (assay service)
The data set is described as follows: Coupled JNK/MKK7 in vitro kinase activity assay, second phase of biphasic curve. It is filed as biochemical. The note with it: second sigmoid of biphasic curve, higher concentrations. How it is done: Test compounds were diluted in DMSO to a final concentration that ranged from 10 μM to 0.0565 nM, while the final concentration of DMSO in all assays was kept at 1%. The reference compound, Staurosporine, was tested in a similar manner as a positive control. […] After incubation (17 h), the activity of JNK1 activated by MKK7 was tested in the presence of 30 μM ATP.
Figure S11. A model of compound 1e based on the co-crystal structure of MKK7 in complex with
Note that the side-chains were not remodeled and may in fact adopt
a rotamer that places closer to the hydroxy moiety.
Figure S12. Biphasic in vitro kinase inhibition behavior by alkyne 2. In a coupled JNK/ MKK7 in
Each sigmoidal curve can be
(1 picture or pasted object on this page, not shown here)

Data set [3] has as its target T3, MKK7 (Homo sapiens, UniProt O14733).
T3 sequence (O14733 117-419 limits assumed): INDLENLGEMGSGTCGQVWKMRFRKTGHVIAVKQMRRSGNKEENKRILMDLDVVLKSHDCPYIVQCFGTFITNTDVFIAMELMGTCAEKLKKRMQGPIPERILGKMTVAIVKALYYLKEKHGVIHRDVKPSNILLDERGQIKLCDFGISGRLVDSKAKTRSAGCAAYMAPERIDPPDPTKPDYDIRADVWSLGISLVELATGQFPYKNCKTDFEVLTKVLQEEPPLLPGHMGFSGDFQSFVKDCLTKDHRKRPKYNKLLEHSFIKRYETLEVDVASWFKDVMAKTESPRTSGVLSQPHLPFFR
The data set is described as follows: Intact protein LC/MS labeling of recombinant MKK7. The note with it: 2 μM compound, 2 μM protein, 5 μM ATP, 5 mM MgCl2, 10 min, 4 °C.

Details of data set [4]: method as in PMID 30768270. The note with it: PAMPA; cited from earlier work. In general terms: PAMPA measures passive passage across an artificial lipid membrane.
On the set-up of data set [5]: method as in PMID 30768270. The following applies: human liver microsome; cited from earlier work.
In data set [6] the test system is MKK7. The note with it: read-out: in vitro IC50; cited from earlier work.
In a further data set the test system is p-JNK. More on the design: method as in PMID 30768270. The following applies: read-out: EC50 in cells; cited from earlier work.

T2 sequence (P45983 whole entry): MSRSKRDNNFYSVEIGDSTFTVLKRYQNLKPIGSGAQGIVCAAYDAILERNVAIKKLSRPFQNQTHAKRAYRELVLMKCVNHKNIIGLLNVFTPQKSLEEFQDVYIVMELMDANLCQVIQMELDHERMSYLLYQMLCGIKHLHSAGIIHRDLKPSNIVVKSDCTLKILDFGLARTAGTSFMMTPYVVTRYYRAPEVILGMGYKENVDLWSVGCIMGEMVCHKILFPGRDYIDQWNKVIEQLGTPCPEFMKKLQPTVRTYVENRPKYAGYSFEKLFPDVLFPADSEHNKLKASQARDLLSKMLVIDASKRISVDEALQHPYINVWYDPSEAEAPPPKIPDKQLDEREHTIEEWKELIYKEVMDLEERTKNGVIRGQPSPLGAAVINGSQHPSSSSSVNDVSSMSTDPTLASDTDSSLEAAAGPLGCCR

Regarding `C#CCNC(=O)c1cc(NC(=O)C=C)cc(-c2n[nH]c3ccccc23)c1` [compound 2, 3-Acrylamido-5-(1H-indazol-3-yl)-N-(prop-2-yn-1-yl)benzamide], the IC50 amounted to 0.6 nM on MKK7 [1] and 1970 nM against JNK. For the same molecule, the EC50 in data set [2] (Homo sapiens, U2OS) was under 100 nM. Further, at MKK7 [3], the “% MKK7 labeling” value is recorded as 100%.

On to `C=CC(=O)N1CCC[C@@H](n2nc(-c3cn(C[C@H](O)c4ccc(Br)cc4)nn3)c3c(N)ncnc32)C1` [1e, 1-((R)-3-(4-Amino-3-(1-((R)-2-(4-bromophenyl)-2-hydroxy-ethyl)-1H-1,2,3-triazol-4-yl)-1H-pyrazolo[3,4-d]pyrimidin-1-yl)piperidin-1-yl)prop-2-en-1-one], for which the EC50 in data set [2] (Homo sapiens, U2OS) is over 500 nM.

Consider `C=CC(=O)N1CCC[C@@H](n2nc(-c3cn(-c4ccc(Cl)cc4O)nn3)c3c(N)ncnc32)C1` [1d, (R)-1-(3-(4-Amino-3-(1-(4-chloro-2-hydroxyphenyl)-1H-1,2,3-triazol-4-yl)-1H-pyrazolo[3,4-d]pyrimidin-1-yl)piperidin-1-yl)prop-2-en-1-one], for which, in data set [2] (Homo sapiens, U2OS), the EC50 was found to be 1090 nM.

The molecule `C#Cc1nn([C@@H]2CCCN(C(=O)C=C)C2)c2ncnc(N)c12` [compound 1] came in with an IC50 at MKK7 [1] of 30 nM. Also, the EC50 in data set [2] (Homo sapiens, U2OS) is over 10000 nM.

With `C=CC(=O)N1CCC[C@@H](n2nc(-c3ccc(Oc4ccccc4)cc3)c3c(N)ncnc32)C1` [ibrutinib], the permeability in data set [4] is listed as 38 %flux.

Turning to `C=CC(=O)N1CCC[C@@H](n2nc(-c3cn(CC(F)(F)c4ccccc4)nn3)c3c(N)ncnc32)C1` [1k, (R)-1-(3-(4-Amino-3-(1-(2,2-difluoro-2-phenylethyl)-1H-1,2,3-triazol-4-yl)-1H-pyrazolo[3,4-d]pyrimidin-1-yl)piperidin-1-yl)prop-2-en-1-one], the IC50 on MKK7 [1] stood at 4 nM. In addition, the 50% effective concentration (EC50) in data set [2] (Homo sapiens, U2OS) worked out at 265 nM.

With `C=CC(=O)Nc1cc(C(=O)NCc2cn(-c3ccccc3C)nn2)cc(-c2n[nH]c3ccccc23)c1` [2b, 3-Acrylamido-5-(1H-indazol-3-yl)-N-((1-(o-tolyl)-1H-1,2,3-triazol-4-yl)methyl)benzamide], the EC50 in data set [2] (Homo sapiens, U2OS) was about 3000 nM; in data set [2], under 3000 nM.

The molecule `C=CC(=O)Nc1cc(C(=O)NCc2cn([C@@H]3CCCC[C@H]3OC)nn2)cc(-c2n[nH]c3ccccc23)c1` [2a, rac-3-Acrylamido-5-(1H-indazol-3-yl)-N-((1-((trans-)-2-methoxycyclohexyl)-1H-1,2,3-triazol-4-yl)methyl)benzamide] yielded an IC50 against MKK7 [1] of 30 nM. Also, the EC50 in data set [2] (Homo sapiens, U2OS) was over 10000 nM.

As to `C=CC(=O)Nc1cc(C(=O)NCc2cn(CCOC)nn2)cc(-c2n[nH]c3ccccc23)c1` [2d, 3-Acrylamido-5-(1H-indazol-3-yl)-N-((1-(2-methoxyethyl)-1H-1,2,3-triazol-4-yl)methyl)benzamide], the “% MKK7 labeling” value on MKK7 [3] came to 100%.

Turning to `C=CC(=O)N1CCC[C@@H](n2nc(-c3cn(-c4ccc(C(C)=O)cc4)nn3)c3c(N)ncnc32)C1` [1g], the “CL HLM” value in data set [5] is 0.154 µL/min/mg. In the data set on MKK7 [6], the IC50 is 10 nM. Further, the EC50 in the data set with p-JNK is about 400 nM. Besides, at MKK7 [3], the “% MKK7 labeling” value is reported as 89%.

Regarding `C=CC(=O)Nc1cc(C(=O)NCc2cn(C3CCC3)nn2)cc(-c2n[nH]c3ccccc23)c1` [2c, 3-Acrylamido-N-((1-cyclobutyl-1H-1,2,3-triazol-4-yl)methyl)-5-(1H-indazol-3-yl)benzamide], the EC50 in data set [2] (Homo sapiens, U2OS) was over 5000 nM.

As usually defined, the IC50 is the concentration that gives 50% inhibition. By EC50 is commonly meant the midpoint of the concentration-response curve.
